Data on 41 compounds can be found in EP0539588A1, “AMINE DERIVATIVE” (NIPPON SODA CO., LTD., priority 1990, dated 1992).

Like-named read-outs stand apart in the source and are kept apart here.

In series [1] the test system is Cotton aphids. Description: Efficacy against cotton aphids (spray on cucumber leaves). Format: in vivo. The note with it: for mortality at 125 ppm: 168 h, read-out: Control E fficacy (7 days later) 125ppm. How it is done: Test Example 1: Efficacy against cotton aphids
Cotton aphids were inoculated at the rate of 30-50 aphids per plot on 10 days old cucumber leaves grown in 10 cm pot by using small brush respectively. The aphids injured during inoculation were eliminated after one day, then the compound solution adjusted to 125 ppm concentration by dilution emulsifiable concentrate according to the recipe of the Example 6 with water was sprayed thereto. The aphids were allowed to stand in incubator maintained at 25 °C and 65% R.H., then counted the number of living aphids after 7 days whereby the control ratio was determined in comparison with the untreated plot.

The subject of series [2] is resistant-strain of planthoppers for organophosphate and carbamate insecticides. Description: Efficacy against planthoppers (rice seedling dip). The conditions noted are these: Oryza sativa, 120 h, read-out: Mortality (5days later) 125 ppm. Format: in vivo. From the text: Test Example 2: Efficacy against planthoppers
Young seedlings of rice plant at the stage of 7 days after germination were dipped for 30 seconds in the compound solution of the emulsifiable concentrate according to the recipe of Example 6 adjusted to 125 ppm concentration by diluting with water. After seedlings were dried, they were put into the inside of test tubes and 10 third instar larva of resistant-strain of planthoppers for organophosphate and carbamate insecticides were respectively inoculated in each test tube. The test tubes were shielded with gauze and allowed to stand in the incubator maintained at 25°C and 65% R.H., then the percentage killed were counted after 5 days.

The mark [3] stands for this setting: 125 ppm spray of emulsifiable concentrate (Example 6) on cucumber leaves, living aphids counted after 7 days, compared with the untreated plot, 25 °C, 65% R.H.
[4] abbreviates: rice seedlings dipped 30 seconds in 125 ppm solution, 10 third instar larva per test tube, percentage killed after 5 days, 25°C, 65% R.H.

On to `Cc1nc(N(C)C)nc(OC(=O)N(C)C)c1C` [Comparative Compound A, Pyrimicarb, reference compound], for which the “Control E fficacy (7 days later) 125ppm” value in series [1] (setting [3]) is 0%.

Take `CCOC(=O)CC(SP(=S)(OC)OC)C(=O)OCC` (stereo not shown) [Comparative Compound B, Malathion, reference compound]: the mortality at 125 ppm in series [2] turned out to be 0%.

For `O=C1C=C(NCc2ccc(Cl)nc2)CCC1` [Compound No. 1, 1-(2-chloro-5-pyridylmethylamino)-1-cyclohexene-3-on], the mortality at 125 ppm in series [1] and in series [2] was 100% each time.

As for `Cn1c(NCc2ccc(Cl)nc2)cc(=O)n(C)c1=O` [Compound No. 70, 4-(2-chloro-5-pyridylmethylamino)-1,3-dimethyluracil], the mortality at 125 ppm in series [2] (setting [4]) was 100%.

As for `Cn1c(NCc2ccc(Cl)nc2)c([N+](=O)[O-])c(=O)n(C)c1=O` [Compound No. 71, 4-(2-chloro-5-pyridylmethylamino)-1,3-dimethyl-5-nitrouracil], the mortality at 125 ppm in series [2] (setting [4]) was found to be 100%.

For the compound `Cc1cc(NCc2ccc(Cl)nc2)cc(=O)o1` [Compound No. 77, 4-(2-chloro-5-pyridylmethylamino)-6-methylpyran-2-on], the mortality at 125 ppm in series [2] was found to be 100%.

For the compound `O=C1CCCC(NCc2ccc(Cl)nc2)=C1Cl` [compound 23], in series [2] (setting [4]), the mortality at 125 ppm was 100%.

As for `CC1CCC(NCc2ccc(Cl)nc2)=CC1=O` (stereo not shown) [compound 29], the mortality at 125 ppm in series [1] (setting [3]) and in series [2] (setting [4]) was 100% throughout.

For `CC1(C)CCC(NCc2ccc(Cl)nc2)=CC1=O` [compound 30], the mortality at 125 ppm in series [2] (setting [4]) came out at 100%.

For `CSC1CCC(NCc2ccc(Cl)nc2)=CC1=O` (stereo not shown) [compound 31], the mortality at 125 ppm in series [1] (setting [3]) and in series [2] (setting [4]) was 100% in each case.

As to `CC1CC(=O)C=C(NCc2ccc(Cl)nc2)C1` (stereo not shown) [compound 34], the mortality at 125 ppm in series [2] (setting [4]) amounted to 100%.

For the compound `CSC1CCC(N(C)Cc2ccc(Cl)nc2)=CC1=O` (stereo not shown) [compound 42], the mortality at 125 ppm in series [2] (setting [4]) was found to be 100%.

On to `O=C1C=C(NCc2cnc(Cl)s2)CCC1` [compound 59], for which the mortality at 125 ppm in series [1] (setting [3]) and in series [2] (setting [4]) was 100% in each case.

Consider `CN(Cc1cnc(Cl)s1)C1=CC(=O)CCC1` [compound 60], for which the mortality at 125 ppm in series [1] (setting [3]) and in series [2] (setting [4]) was 100% in each case.

For `Cc1cc(NCc2ccc(Cl)nc2)c([N+](=O)[O-])c(=O)n1C` [compound 69], the mortality at 125 ppm in series [2] (setting [4]) was determined as 100%.

Regarding `CN1C(=O)C([N+](=O)[O-])=C(NCc2ccc(Cl)nc2)N(C)S1(=O)=O` [compound 73], the mortality at 125 ppm in series [2] (setting [4]) is 100%.

Take `O=C1C=C(NCc2ccc(Cl)nc2)CCO1` [compound 74]: the mortality at 125 ppm in series [1] (setting [3]) and in series [2] (setting [4]) was 100% each time.

Turning to `CC1CC(NCc2ccc(Cl)nc2)=CC(=O)O1` (stereo not shown) [compound 75], the mortality at 125 ppm in series [1] (setting [3]) and in series [2] (setting [4]) was 100% throughout.

On to `O=C1C=C(NCc2ccc(Cl)nc2)CSC1` [compound 80], for which, in series [2] (setting [4]), the mortality at 125 ppm worked out at 100%.

Turning to `CN(Cc1ccc(Cl)nc1)C1=CC(=O)OCC1` [compound 82], the mortality at 125 ppm in series [1] (setting [3]) and in series [2] (setting [4]) was 100% throughout.

For the compound `O=C1C=C(NCc2ccc(Cl)nc2)CO1` [compound 83], the mortality at 125 ppm in series [1] (setting [3]) and in series [2] (setting [4]) was 100% each time.

With `CN(Cc1ccc(Cl)nc1)C1=CC(=O)OC1` [compound 84], the mortality at 125 ppm in series [1] (setting [3]) and in series [2] (setting [4]) was 100% each time.

With `CCN(Cc1ccc(Cl)nc1)C1=CC(=O)OC1` [compound 85], the mortality at 125 ppm in series [1] (setting [3]) and in series [2] (setting [4]) was 100% throughout.

On to `CCCN(Cc1ccc(Cl)nc1)C1=CC(=O)OC1` [compound 86], for which the mortality at 125 ppm in series [1] (setting [3]) and in series [2] (setting [4]) was 100% each time.

With `O=C1C=C(N(Cc2ccc(Cl)nc2)C2CC2)CO1` [compound 88], the mortality at 125 ppm in series [1] (setting [3]) and in series [2] (setting [4]) was 100% throughout.

As for `CC(C)CN(Cc1ccc(Cl)nc1)C1=CC(=O)OC1` [compound 89], the mortality at 125 ppm in series [1] (setting [3]) and in series [2] (setting [4]) was 100% in each case.

Regarding `C=CCN(Cc1ccc(Cl)nc1)C1=CC(=O)OC1` [compound 91], the mortality at 125 ppm in series [1] (setting [3]) and in series [2] (setting [4]) was 100% in each case.

On to `O=C1C=C(N(Cc2ccc(Cl)nc2)C(=O)C2CC2)CO1` [compound 96], for which the mortality at 125 ppm in series [2] (setting [4]) amounted to 100%.

Turning to `CON(Cc1ccc(Cl)nc1)C1=CC(=O)OC1` [compound 98], the mortality at 125 ppm in series [1] (setting [3]) and in series [2] (setting [4]) was 100% each time.

As to `O=C1OCC(NCc2ccc(Cl)nc2)=C1Br` [compound 103], the mortality at 125 ppm in series [1] (setting [3]) and in series [2] (setting [4]) was 100% throughout.

For `CN(Cc1ccc(Cl)nc1)C1=C(F)C(=O)OC1` [compound 104], the mortality at 125 ppm in series [1] (setting [3]) and in series [2] (setting [4]) was 100% each time.

Consider `O=C1OCC(N(Cc2ccc(Cl)nc2)C2CC2)=C1F` [compound 105], for which the mortality at 125 ppm in series [1] (setting [3]) and in series [2] (setting [4]) was 100% in each case.

With `O=C1C=C(NCc2ccc(Cl)nc2)CS1` [compound 111], the mortality at 125 ppm in series [1] (setting [3]) and in series [2] (setting [4]) was 100% in each case.

For the compound `CN(Cc1ccc(Cl)nc1)C1=CC(=O)SC1` [compound 112], the mortality at 125 ppm in series [1] (setting [3]) and in series [2] (setting [4]) was 100% throughout.

Take `CC1OC(=O)C=C1NCc1ccc(Cl)nc1` (stereo not shown) [compound 116]: the mortality at 125 ppm in series [1] (setting [3]) and in series [2] (setting [4]) was 100% each time.

On to `CC1OC(=O)C=C1N(C)Cc1ccc(Cl)nc1` (stereo not shown) [compound 117], for which the mortality at 125 ppm in series [1] (setting [3]) and in series [2] (setting [4]) was 100% throughout.

`O=C1C=C(NCc2cnc(Cl)s2)CO1` [compound 143]: the mortality at 125 ppm in series [1] (setting [3]) and in series [2] (setting [4]) was 100% in each case.

For `CN(Cc1cnc(Cl)s1)C1=CC(=O)OC1` [compound 144], the mortality at 125 ppm in series [1] (setting [3]) and in series [2] (setting [4]) was 100% each time.

For the compound `CN1CC(NCc2ccc(Cl)nc2)=CC1=O` [compound 161], the mortality at 125 ppm in series [2] (setting [4]) worked out at 100%.

Take `CN(Cc1ccc(Cl)nc1)C1=CC(=O)CC1` [compound 175]: the mortality at 125 ppm in series [1] (setting [3]) and in series [2] (setting [4]) was 100% throughout.

For the compound `CC1=C(N(C)Cc2ccc(Cl)nc2)CCC1=O` [compound 187], in series [2] (setting [4]), the mortality at 125 ppm came out at 100%.
